Assay results from BindingDB's records for doi:10.1021/jm00001a012 (Ciba-Geigy, 1995).

Target: 5-lipoxygenase (Cavia porcellus)
Test: In vitro 5-lipoxygenase inhibitory activity against A-23187-stimulated conversion of [14C]AA to LTB4 in guinea pig peritoneal polymorphonuclear leukocytes

IC50: 97 nM
SMILES: NC(=O)N(O)C[C@H]1COc2ccc(Oc3ccc(F)cc3)cc2O1 [(2S)-2-[[N-(aminocarbonyl)-N-hydroxyamino]methyl]-7-(4-fluorophenoxy)-1,4-benzodioxan]
